Our source for the mortality, LD50 and LC50 values is patent US4024252A, “2-(5-Ethyl-6-bromothiazolo[3,2-b]-5-triazolyl)thiophosphonate esters, compositions and method of use” (priority 1973, dated 1977).

By mortality is commonly meant the percentage killed. For orientation: LD50 means the dose at which mortality reaches 50%. The low end stands for a more toxic substance, the high end for a less toxic substance.

Molecules are shown by their SMILES. Values after ≈ are worked out from the molar mass of the structure shown. Read-outs that look alike come from different tables or passages of the source.

Series [1] deals with desert spider mite (Tetranychus desertorum Banks). Description: Test 3 Test for Control of Mite. The settings on record: 72 h, read-out: Rating of mortality. It is filed as in vivo. The method, then:
About 30 adult female mites of desert spider mite (Tetranychus desertorum Banks) laid on main leaves of the potted kidney bean plants grown 7 to 10 days stage after aprouting. One day later, the wounded mites were removed from the plants. The compounds to be tested were sprayed on the plants as water suspension of emulsifiable concentrate prepared by the method of Example 6. After 1 day and 3 days from spraying, dead mites were counted and mortality (%) was calculated.

In series [2] the test system is house flies (Musca domestica Linne). Description: Test 1 Insecticidal Activity against Fly. In kind it is in vivo. The settings on record: topical; for mortality at 0.25 µg/fly: 0.25γ/a fly; for mortality at 0.5 µg/fly: 0.5γ/a fly. The protocol: Fixed concentration of acetone solution containing test compound were prepared.
20 pieces of female adults of house flies (Musca domestica Linne) were tested with 1 μl of acetone solution at their thoracie dorsal by microcylinge and kept at a temperature of 25° C and at a humidity of 65%. 24 hours and 48 hours after treatment, dead flies were counted and mortality (%) was calculated.

For series [3], the system named is Rice stem borer (Chilo suppressalis Walker). Description: Test 4 Insecticidal Activity against Rice stem borer. In kind it is in vivo. The settings on record: 168 h, a week after spraying. The protocol:
20 hatched nymph of Rice stem borer (Chilo suppressalis Walker) were inoculated to the potted rice (height: 30 - 40 cm, number: 4/pot). A week after inoculation, 30 ml of fixed concentration of solution containing test compound were sprayed on the rice in which hatched nymph were inhabiting and the pots were kept at the room temperature. A week after spraying, the rice was opened, dead Rice stem borers were counted and mortality (%) was calculated.

Series [4] in a line: Toxicity Test 1, acute oral toxicity. The settings on record: in vivo, mouse; for LD50: oral; for LD50 at 336 h: po, mice, stomach tube, 25% aqueous gum arabic, 2 weeks (Table 7). The text has this: Suspension of the test compound in 25% aqueous solution of gum arabic was compulsorily treated to six mice by means of a stomack tube and inspection had been made for 2 weeks.

For series [5], the system named is northern house mosquito (Culex pipiens molestus Forskal). The series is described as follows: Test 6 Insecticidal Activity against Mosquito. It is filed as in vivo. The settings on record: 24 hours after inoculation, aqueous suspension of wettable powder. The method, then:
An aqueous suspension of formulated wettable powder were poured in 200 ml beaker and in which 20 northern house mosquito (Culex pipiens molestus Forskal) were inoculated.

Series [6] relates to Cabbage armyworm (Leucania separate Walker). Description: Test 2 Insecticidal Activity against Cabbage armyworm. In kind it is in vivo. The method, then: 10 Multigeneration bred armyworms (Leucania separate Walker) were used for one experimental zone.
[…] Then the leaf was set an filter paper having 9 cm diameter in a schale. The test insects were inoculated into the dish and the cover was put on it. After 1 day and 3 days from inoculation, dead insects were counted and mortality (%) were calculated. The results were shown in

The subject of series [7] is tobacco cutworms (Prodenia litura Fabricius). Description: Test 5 Test for Control of Tobacco cutworm. The settings on record: 72 h, 3 days; for mortality at 31.3 ppm: 31.3 p.p.m.; for mortality at 62.5 ppm: 62.5 p.p.m.; for mortality at 125 ppm: 125 p.p.m. It is filed as in vivo. The protocol:
Then the leaf and 5 tobacco cutworms (Prodenia litura Fabricius) of 3 stages larva were put into a covered dish.
The test was carried out twice. After 3 days from inoculation, dead insects were counted and mortality (%) was calculated.

Series [8] can be described thus: Toxicity Test 2, medium tolerated limit in carp. It is filed as in vivo, Cyprinus carpio. The settings on record: water. The method, then: The test compound was dissolved in dimethylformamide and said solution was added to 20 liters of water containing 10 carps (Cyprinus carpio) in a fixed concentration.
Dead fish within 48 hours from the addition of test compounds was counted.
The results were shown in Table 8 as medium tolerated limit (TLm).
*TLm is the concentration of test compound which half the number of fish

Setting [9] is: 48 hours (Table 8), read-out: TLm (medium tolerated limit).
Where [10] appears, read: 48 hrs, read-out: medium tolerance limit (48 hrs) for carp.

Regarding `CCOP(=S)(OCC)Oc1nc2scc(C)n2n1` [Comparison compound, O,O-diethyl-2-(5-methylthiazolo[3,2-b]-s-triazolyl)thionophosphate, reference compound], in series [1], the mortality at 500 ppm came to 100%. In addition, the mortality at 0.25 µg/fly amounted to 0% in series [2] (24 hrs.) and 10% in series [2] (48 hrs.). Further, the mortality at 0.5 µg/fly in series [2] (24 hrs.) and in series [2] (48 hrs.) was 70% each time. For the same molecule, the mortality at 15.6 ppm in series [3] (15.6 ppm) was found to be 84%. In addition, the mortality at 31.3 ppm in series [3] amounted to 100%; in series [6] (24 h, 1 day), 70%; in series [6] (72 h, 3 days), 100%; in series [7], 0%. The LD50 in series [4] was 33 to 50 mg/kg. The molecule also yielded an LD50 at 336 h in series [4] of 33 to 50 mg/kg. The same molecule gave an LC50 in series [5] of 0.04 µg/mL (≈ 0.13 µM). Moreover, the mortality at 15.7 ppm in series [6] (24 h) turned out to be 30%; in series [6] (72 h) it was 80%. Also, the mortality at 7.8 ppm in series [6] (24 h, 1 day) came out at 0%; in series [6] (72 h, 3 days), 0%. Moreover, the mortality at 62.5 ppm in series [7] was determined as 80%. The molecule also came in with a mortality at 125 ppm in series [7] of 100%. Besides, the LC50 at 48 h in series [8] (setting [9]) was under 0.5 µg/mL.
`CCc1c(Br)sc2nc(OP(=S)(OC)OC)nn12` [Example 1, O,O-Dimethyl 2-(5-ethyl-6-bromothiazolo[3,2-b]s-triazolyl) thionophosphate]: in series [1], the mortality at 500 ppm was 100%. The results for the mortality at 15.7 ppm in series [6] (24 h) and in series [6] (72 h) were 60% and 100%, respectively. In addition, the mortality at 7.8 ppm was 50% in series [6] (24 h, 1 day) and 90% in series [6] (72 h, 3 days). Also, the mortality at 31.3 ppm stood at 100% in series [6] (24 h, 1 day) and 100% in series [6] (72 h, 3 days).
Consider `CCOP(=S)(OCC)Oc1nc2sc(Br)c(CC)n2n1` [Example 2, O,O-Diethyl 2-(5-ethyl-6-bromothiazolo[3,2-b]-s-triazolyl) thionophosphate], for which, in series [1], the mortality at 500 ppm came out at 100%. In addition, the results for the mortality at 0.25 µg/fly in series [2] (24 hrs.) and in series [2] (48 hrs.) were 30% and 40%, respectively. Moreover, the mortality at 0.5 µg/fly in series [2] (24 hrs.) and in series [2] (48 hrs.) was 100% in each case. In addition, the mortality at 7.8 ppm was determined as 91% in series [3] (7.8 ppm); 60% in series [6] (24 h, 1 day); 100% in series [6] (72 h, 3 days). The mortality at 31.3 ppm in series [3] turned out to be 100%; in series [6] (24 h, 1 day), 100%; in series [6] (72 h, 3 days), 100%; in series [7], 80%. The molecule also yielded an LD50 in series [4] of 280 mg/kg. In addition, in series [4], the LD50 at 336 h was 280 mg/kg. Further, the LC50 in series [5] is 0.003 µg/mL (≈ 0.0075 µM). Also, the mortality at 15.7 ppm came to 90% in series [6] (24 h) and 100% in series [6] (72 h). In series [7] (15.6 p.p.m.), the mortality at 15.6 ppm amounted to 60%. Besides, the mortality at 62.5 ppm in series [7] amounted to 100%. Besides, the mortality at 125 ppm in series [7] was 100%. Also, the LC50 at 48 h in series [8] (setting [10]) is 18.5 µg/mL.
Consider `CCc1c(Br)sc2nc(OP(=S)(OC(C)C)OC(C)C)nn12` [Example 3, O,O-diisopropyl 2-(5-ethyl-6-bromothiazolo[3,2-b]-s-triazolyl)thionophosphate], for which the mortality at 15.7 ppm worked out at 60% in series [6] (24 h) and 100% in series [6] (72 h). In addition, the mortality at 7.8 ppm in series [6] (24 h, 1 day) is 50%; in series [6] (72 h, 3 days), 90%. In addition, the mortality at 31.3 ppm came to 100% in series [6] (24 h, 1 day) and 100% in series [6] (72 h, 3 days).
In turn, `CCOP(=S)(OCC)Oc1nc2sc(Br)c(C)n2n1` [O,O-diethyl-2-(5-methyl-6-bromothiazolo[3,2-b]-s-triazolyl)thionophosphate, reference compound] displayed an LD50 in series [4] of 150 mg/kg. Besides, the LC50 at 48 h in series [8] (setting [10]) is under 0.05 µg/mL.
`CCc1c(Br)sc2nc(OP(=S)(OC)OC)nn12` [drawing 11]: in series [4], the LD50 at 336 h was over 200 mg/kg.
Still for that read-out and setting: the result for `CCc1c(Br)sc2nc(OP(=S)(OC(C)C)OC(C)C)nn12` [drawing 12] reads over 200 mg/kg.
As to `CCc1c(Br)sc2nc(OP(=S)(OC)OC)nn12` [drawing 15], the LC50 at 48 h in series [8] (setting [9]) is over 5 µg/mL.
Still for that read-out and setting: the result for `CCc1c(Br)sc2nc(OP(=S)(OC(C)C)OC(C)C)nn12` [drawing 16] reads over 5 µg/mL.
